Test results reported in patent publication US6436955B1, “Crystal modification A of 8-cyano-1-cyclopropyl-7-(is,6s-2,8-diazabicyclo[4.3.0]nonan-8-yl)-6-fluoro-1,4-dihydro-4-oxo-3-quinolinecarboxylic acid” (Bayer Aktiengesellschaft, priority 1998, dated 2002).

Experiment: Water absorption from the atmosphere at 95% relative atmospheric humidity
Type: physicochemical
Conditions: relative atmospheric humidity of 95% (saturated solution of Na2HPO4×12 H2O with sediment in water); within one day
Excerpt: At a relative atmospheric humidity of 95% (established using a saturated solution of Na2HPO4×12 H2O with sediment in water), the solid obtained according to this procedure absorbs approximately 17% by weight of water within one day.
At a relative atmospheric humidity of 95% (established using a saturated solution of Na2HPO4×12 H2O with sediment in water), the solid obtained according to this procedure absorbs approximately 3% by weight of water within one day.

Compound	water absorbed by the solid
N#Cc1c(N2C[C@@H]3CCCN[C@@H]3C2)c(F)cc2c(=O)c(C(=O)O)cn(C3CC3)c12 [Comparative Example, 8-cyano-1-cyclopropyl-7-(1S,6S-2,8-diazabicyclo[4.3.0]nonan-8-yl)-6-fluoro-1,4-dihydro-4-oxo-3-quinolinecarboxylic acid]	approximately 17 % by weight
N#Cc1c(N2C[C@@H]3CCCN[C@@H]3C2)c(F)cc2c(=O)c(C(=O)O)cn(C3CC3)c12 [Example 1, 8-cyano-1-cyclopropyl-7-(1S,6S-2,8-diazabicyclo[4.3.0]nonan-8-yl)-6-fluoro-1,4-dihydro-4-oxo-3-quinolinecarboxylic acid]	approximately 3 % by weight
